ChEMBL document CHEMBL3885861, “Open TG-GATES”

Species: Rattus norvegicus
Assay: Open TG-GATES - Regimen: Single
Format: toxicity, organism-based, Sprague-Dawley
Parameters: regimen Single, gender Male, age 6 weeks
Conditions: in vivo, po, 0 mg/kg, route gavage, dose level Control; for APTT / Bas / Eos / Fbg / Hb / Ht / Lym / MCH / MCHC / MCV / Mono / Neu / PT / Plat / RBC / Ret / WBC: tissue Blood; for KIDNEY_L / KIDNEY_R / KIDNEY_TOTAL: tissue Kidney; for LIVER: tissue Liver; for A/G / ALP / ALT / AST / BUN / CRE / Ca / Cl / DBIL / GLC / IP / K / LDH / Na / PL / RALB / TBIL / TC / TG / TP / gamma-GTP: tissue Plasma

Compound: CN(C)CCC=C1c2ccccc2CCc2ccccc21 [AMITRIPTYLINE]
- TERMINAL_BW (3 h): 194 g
- APTT (3 h): 16.6 s
- Bas (3 h): 0%
- Eos (3 h): 0.8%
- Fbg (3 h): 235.6 mg/dL
- Hb (3 h): 12.8 g/dL
- Ht (3 h): 39.8%
- Lym (3 h): 77.6%
- MCH (3 h): 20.9 pg
- MCHC (3 h): 32.3%
- MCV (3 h): 64.6 fL
- Mono (3 h): 3.4%
- Neu (3 h): 17.2%
- PT (3 h): 16.2 s
- Plat (3 h): 103.9 x10_4/uL
- RBC (3 h): 616.6 x10_4/ul
- Ret (3 h): 9.3%
- WBC (3 h): 90.6 x10_2/uL
- KIDNEY_L (3 h): 0.9 g
- KIDNEY_R (3 h): 0.9 g
- KIDNEY_TOTAL (3 h): 1.7 g
- LIVER (3 h): 8.2 g
- A/G (3 h): 0.8
- ALP (3 h): 1452 IU/L
- ALT (3 h): 48.2 IU/L
- AST (3 h): 80.8 IU/L
- BUN (3 h): 8.8 mg/dL
- CRE (3 h): 0.2 mg/dL
- Ca (3 h): 10.7 mg/dL
- Cl (3 h): 106 meq/L
- DBIL (3 h): 0.01 mg/dL
- GLC (3 h): 183.6 mg/dL
- IP (3 h): 9.2 mg/dL
- K (3 h): 4.1 meq/L
- LDH (3 h): 66.2 IU/L
- Na (3 h): 143 meq/L
- PL (3 h): 124.4 mg/dL
- RALB (3 h): 2.4 g/dL
- TBIL (3 h): 0.062 mg/dL
- TC (3 h): 67.6 mg/dL
- TG (3 h): 44.4 mg/dL
- TP (3 h): 5.3 g/dL
- gamma-GTP (3 h): 1 IU/L
- TERMINAL_BW (6 h): 193.8 g
- APTT (6 h): 17 s
- Bas (6 h): 0%
- Eos (6 h): 0.8%
- Fbg (6 h): 256.2 mg/dL
- Hb (6 h): 12.7 g/dL
- Ht (6 h): 38.9%
- Lym (6 h): 72.6%
- MCH (6 h): 20.6 pg
- MCHC (6 h): 32.6%
- MCV (6 h): 63.3 fL
- Mono (6 h): 2.4%
- Neu (6 h): 23.2%
- PT (6 h): 15.8 s
- Plat (6 h): 119.8 x10_4/uL
- RBC (6 h): 615.8 x10_4/ul
- Ret (6 h): 8.9%
- WBC (6 h): 66 x10_2/uL
- KIDNEY_L (6 h): 0.9 g
- KIDNEY_R (6 h): 0.8 g
- KIDNEY_TOTAL (6 h): 1.7 g
- LIVER (6 h): 8.2 g
- A/G (6 h): 0.9
- ALP (6 h): 1334.2 IU/L
- ALT (6 h): 44.6 IU/L
- AST (6 h): 74.4 IU/L
- BUN (6 h): 8.6 mg/dL
- CRE (6 h): 0.1 mg/dL
- Ca (6 h): 10.7 mg/dL
- Cl (6 h): 105.8 meq/L
- DBIL (6 h): 0.008 mg/dL
- GLC (6 h): 173.6 mg/dL
- IP (6 h): 9.8 mg/dL
- K (6 h): 4.2 meq/L
- LDH (6 h): 62 IU/L
- Na (6 h): 142.6 meq/L
- PL (6 h): 142.6 mg/dL
- RALB (6 h): 2.5 g/dL
- TBIL (6 h): 0.06 mg/dL
- TC (6 h): 78.4 mg/dL
- TG (6 h): 67 mg/dL
- TP (6 h): 5.4 g/dL
- gamma-GTP (6 h): 1 IU/L
- TERMINAL_BW (9 h): 191.9 g
- APTT (9 h): 16 s
- Bas (9 h): 0%
- Eos (9 h): 1%
- Fbg (9 h): 295.6 mg/dL
- Hb (9 h): 12.8 g/dL
- Ht (9 h): 39.1%
- Lym (9 h): 77.6%
- MCH (9 h): 20.9 pg
- MCHC (9 h): 32.8%
- MCV (9 h): 63.9 fL
- Mono (9 h): 2.4%
- Neu (9 h): 18.6%
- PT (9 h): 15.2 s
- Plat (9 h): 119.1 x10_4/uL
- RBC (9 h): 611.8 x10_4/ul
- Ret (9 h): 8.5%
- WBC (9 h): 71.6 x10_2/uL
- KIDNEY_L (9 h): 0.9 g
- KIDNEY_R (9 h): 0.9 g
- KIDNEY_TOTAL (9 h): 1.7 g
- LIVER (9 h): 7.8 g
- A/G (9 h): 0.8
- ALP (9 h): 1549.8 IU/L
- ALT (9 h): 40.8 IU/L
- AST (9 h): 71.4 IU/L
- BUN (9 h): 8.8 mg/dL
- CRE (9 h): 0.2 mg/dL
- Ca (9 h): 10.7 mg/dL
- Cl (9 h): 106.6 meq/L
- DBIL (9 h): 0.01 mg/dL
- GLC (9 h): 174.8 mg/dL
- IP (9 h): 10 mg/dL
- K (9 h): 4 meq/L
- LDH (9 h): 60.4 IU/L
- Na (9 h): 142.6 meq/L
- PL (9 h): 140.4 mg/dL
- RALB (9 h): 2.5 g/dL
- TBIL (9 h): 0.06 mg/dL
- TC (9 h): 79.4 mg/dL
- TG (9 h): 44 mg/dL
- TP (9 h): 5.4 g/dL
- gamma-GTP (9 h): 1 IU/L
- TERMINAL_BW (24 h): 208.1 g
- APTT (24 h): 16.3 s
- Bas (24 h): 0.4%
- Eos (24 h): 1%
- Fbg (24 h): 266 mg/dL
- Hb (24 h): 12.5 g/dL
- Ht (24 h): 38.5%
- Lym (24 h): 77.8%
- MCH (24 h): 21.2 pg
- MCHC (24 h): 32.4%
- MCV (24 h): 65.5 fL
- Mono (24 h): 3.2%
- Neu (24 h): 17%
- PT (24 h): 16.3 s
- Plat (24 h): 110 x10_4/uL
- RBC (24 h): 589.4 x10_4/ul
- Ret (24 h): 9.5%
- WBC (24 h): 101.9 x10_2/uL
- KIDNEY_L (24 h): 0.9 g
- KIDNEY_R (24 h): 0.9 g
- KIDNEY_TOTAL (24 h): 1.8 g
- LIVER (24 h): 9.6 g
- A/G (24 h): 0.8
- ALP (24 h): 1573.8 IU/L
- ALT (24 h): 48.2 IU/L
- AST (24 h): 77.4 IU/L
- BUN (24 h): 15.4 mg/dL
- CRE (24 h): 0.2 mg/dL
- Ca (24 h): 11.1 mg/dL
- Cl (24 h): 105 meq/L
- DBIL (24 h): 0.016 mg/dL
- GLC (24 h): 186.4 mg/dL
- IP (24 h): 8.2 mg/dL
- K (24 h): 4 meq/L
- LDH (24 h): 90.2 IU/L
- Na (24 h): 143.2 meq/L
- PL (24 h): 153.8 mg/dL
- RALB (24 h): 2.6 g/dL
- TBIL (24 h): 0.054 mg/dL
- TC (24 h): 79.4 mg/dL
- TG (24 h): 97.4 mg/dL
- TP (24 h): 5.6 g/dL
- gamma-GTP (24 h): 0.6 IU/L
